Columns and labels:
[1] = biological target: T1, HiBit-BRG1 fusion protein (Homo sapiens, UniProt P51532); assay: HiBiT-BRG1 cell-based degradation assay (Nano-Glo HiBiT lytic detection, 24 h); details: HeLa cell line expressing HiBit-BRG1 and LgBit; for Dmax: read-out: BRG1 HiBit Degradation Maximum (%); for DC50: read-out: BRMG1 HiBit Degradation IC50
T1 construct: expressed in transfected cells
Method in brief: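 Luminescence from HiBiT/LgBiT complementation after lytic detection reagent was read following 24 h compound exposure of HeLa cells stably carrying HiBiT-BRG1 plus LgBiT (5000 cells/well). Signal scaled to % degradation using DMSO-treated cells as 0% and cells given 2 μM known BRM/BRG1 degrader as 100%.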

HiBit-BRM fusion protein = biological target: T2, HiBit-BRM fusion protein (Homo sapiens, UniProt P51531); assay: HiBiT-BRM cell-based degradation assay (Nano-Glo HiBiT lytic detection, 24 h); details: HeLa cell line expressing HiBiT-BRM; for DC50: read-out: BRM HiBit Degradation IC50
T2 construct: expressed in transfected cells
T2 sequence (P51531 whole entry, the tested form may be a part): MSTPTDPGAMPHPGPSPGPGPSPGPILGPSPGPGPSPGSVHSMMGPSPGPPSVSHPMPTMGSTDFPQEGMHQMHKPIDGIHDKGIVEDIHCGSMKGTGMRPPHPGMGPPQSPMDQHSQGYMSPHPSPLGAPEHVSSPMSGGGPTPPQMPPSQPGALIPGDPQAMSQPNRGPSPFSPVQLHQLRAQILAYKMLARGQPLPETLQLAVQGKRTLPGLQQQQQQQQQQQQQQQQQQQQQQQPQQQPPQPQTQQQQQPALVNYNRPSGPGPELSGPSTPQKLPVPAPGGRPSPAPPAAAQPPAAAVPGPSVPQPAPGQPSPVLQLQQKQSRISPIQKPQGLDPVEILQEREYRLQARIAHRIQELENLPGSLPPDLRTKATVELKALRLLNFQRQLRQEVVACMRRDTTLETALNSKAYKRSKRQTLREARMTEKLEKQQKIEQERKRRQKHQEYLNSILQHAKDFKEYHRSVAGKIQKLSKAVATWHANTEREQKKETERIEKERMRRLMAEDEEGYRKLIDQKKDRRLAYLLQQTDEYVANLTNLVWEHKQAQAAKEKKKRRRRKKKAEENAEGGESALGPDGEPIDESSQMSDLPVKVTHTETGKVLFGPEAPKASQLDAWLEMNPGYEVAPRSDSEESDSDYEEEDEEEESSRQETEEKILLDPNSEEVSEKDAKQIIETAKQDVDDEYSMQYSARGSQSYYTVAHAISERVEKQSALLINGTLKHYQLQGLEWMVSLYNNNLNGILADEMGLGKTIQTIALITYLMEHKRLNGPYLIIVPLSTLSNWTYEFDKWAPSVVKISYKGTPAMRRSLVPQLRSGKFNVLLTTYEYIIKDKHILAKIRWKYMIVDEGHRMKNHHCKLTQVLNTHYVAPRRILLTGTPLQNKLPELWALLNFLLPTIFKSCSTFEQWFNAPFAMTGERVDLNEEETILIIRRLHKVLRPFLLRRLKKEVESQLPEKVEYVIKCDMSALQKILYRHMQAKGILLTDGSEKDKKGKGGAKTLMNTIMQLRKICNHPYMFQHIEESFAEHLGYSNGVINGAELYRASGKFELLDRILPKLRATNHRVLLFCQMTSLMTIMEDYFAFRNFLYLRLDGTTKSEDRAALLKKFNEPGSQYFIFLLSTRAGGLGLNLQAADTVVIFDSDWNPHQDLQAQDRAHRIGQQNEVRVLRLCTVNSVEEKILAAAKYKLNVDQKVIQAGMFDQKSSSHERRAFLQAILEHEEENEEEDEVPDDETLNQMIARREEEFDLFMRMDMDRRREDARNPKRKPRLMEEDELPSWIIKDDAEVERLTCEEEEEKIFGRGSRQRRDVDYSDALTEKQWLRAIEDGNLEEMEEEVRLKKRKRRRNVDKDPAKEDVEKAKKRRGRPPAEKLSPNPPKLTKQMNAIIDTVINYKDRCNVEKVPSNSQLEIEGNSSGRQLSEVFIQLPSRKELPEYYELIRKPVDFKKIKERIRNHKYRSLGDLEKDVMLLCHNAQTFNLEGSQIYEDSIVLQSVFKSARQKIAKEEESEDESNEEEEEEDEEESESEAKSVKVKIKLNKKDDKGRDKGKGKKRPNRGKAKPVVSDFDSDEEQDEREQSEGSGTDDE
Method in brief: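 Luminescence from LgBiT complementation quantified remaining HiBiT-BRM in stably expressing HeLa cells after 24 h compound exposure (top final dose 30 μM, 3-fold, 10 points, duplicate). Degradation expressed as percent relative to DMSO and a 2 μM reference degrader.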

T1 sequence (P51532 whole entry, the tested form may be a part): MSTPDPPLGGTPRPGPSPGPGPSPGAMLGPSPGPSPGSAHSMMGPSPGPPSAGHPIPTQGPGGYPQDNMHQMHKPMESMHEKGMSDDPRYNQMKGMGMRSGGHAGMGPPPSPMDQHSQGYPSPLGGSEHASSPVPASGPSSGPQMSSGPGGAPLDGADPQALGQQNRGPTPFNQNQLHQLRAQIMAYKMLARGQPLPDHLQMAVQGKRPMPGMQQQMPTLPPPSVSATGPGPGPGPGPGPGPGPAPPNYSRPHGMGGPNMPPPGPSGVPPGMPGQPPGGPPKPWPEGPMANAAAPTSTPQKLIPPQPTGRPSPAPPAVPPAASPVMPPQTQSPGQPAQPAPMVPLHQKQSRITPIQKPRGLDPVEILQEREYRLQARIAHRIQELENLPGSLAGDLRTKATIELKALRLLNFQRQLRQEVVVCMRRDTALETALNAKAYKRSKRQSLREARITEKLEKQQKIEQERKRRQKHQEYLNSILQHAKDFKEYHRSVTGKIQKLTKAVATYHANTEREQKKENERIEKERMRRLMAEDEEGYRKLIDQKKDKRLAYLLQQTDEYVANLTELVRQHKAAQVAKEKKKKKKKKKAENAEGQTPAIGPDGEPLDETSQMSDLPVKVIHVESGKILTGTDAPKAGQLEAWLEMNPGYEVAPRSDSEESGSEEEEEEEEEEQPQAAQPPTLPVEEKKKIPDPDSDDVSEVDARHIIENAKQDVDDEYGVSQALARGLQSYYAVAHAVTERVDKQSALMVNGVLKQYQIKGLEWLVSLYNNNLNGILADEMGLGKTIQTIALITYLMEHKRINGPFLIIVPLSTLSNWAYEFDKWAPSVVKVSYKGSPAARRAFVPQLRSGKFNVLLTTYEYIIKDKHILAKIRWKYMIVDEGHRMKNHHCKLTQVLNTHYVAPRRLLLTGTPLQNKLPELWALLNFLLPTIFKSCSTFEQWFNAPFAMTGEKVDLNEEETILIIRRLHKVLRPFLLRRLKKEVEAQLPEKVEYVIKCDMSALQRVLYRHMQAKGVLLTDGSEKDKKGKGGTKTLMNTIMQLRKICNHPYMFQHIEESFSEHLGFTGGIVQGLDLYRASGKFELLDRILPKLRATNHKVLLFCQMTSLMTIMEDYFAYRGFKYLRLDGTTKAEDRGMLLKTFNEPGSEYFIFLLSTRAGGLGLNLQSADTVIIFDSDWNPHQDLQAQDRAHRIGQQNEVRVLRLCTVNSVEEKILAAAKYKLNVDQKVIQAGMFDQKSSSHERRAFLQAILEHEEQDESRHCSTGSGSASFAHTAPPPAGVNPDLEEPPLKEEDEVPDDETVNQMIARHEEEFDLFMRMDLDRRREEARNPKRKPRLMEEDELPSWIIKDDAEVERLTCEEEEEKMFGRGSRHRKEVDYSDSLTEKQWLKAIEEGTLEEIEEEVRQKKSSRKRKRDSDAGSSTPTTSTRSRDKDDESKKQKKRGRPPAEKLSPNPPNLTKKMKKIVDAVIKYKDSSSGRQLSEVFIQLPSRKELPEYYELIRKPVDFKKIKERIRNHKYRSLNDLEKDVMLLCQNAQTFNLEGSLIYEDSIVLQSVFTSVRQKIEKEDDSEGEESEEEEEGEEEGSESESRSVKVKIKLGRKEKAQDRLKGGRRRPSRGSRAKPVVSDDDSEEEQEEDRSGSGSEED

**Q.** What does the source list for `Cc1ncsc1-c1ccc([C@H](C)NC(=O)[C@@H]2C[C@@H](O)CN2C(=O)[C@@H](c2cc(N3CCC4(CC3)CC(c3cc5nnc(-c6ccccc6O)cc5n3C)C4)no2)C(C)C)cc1` [Compound 113, (2S,4R)-4-hydroxy-1-((R)-2-(3-(2-(3-(2-hydroxyphenyl)-5-methyl-5H-pyrrolo[3,2-c]pyridazin-6-yl)-7-azaspiro[3.5]nonan-7-yl)isoxazol-5-yl)-3-methylbutanoyl)-N-((S)-1-(4-(4-methylthiazol-5-yl)phenyl)ethyl)pyrrolidine-2-carboxamide]?
**A.** Dmax [1]: > 50%; DC50 [1]: > 10 nM; BRM HiBit Degradation Maximum (%) (HiBit-BRM fusion protein): A (“A” indicates maximum degradation ≥75%); DC50 (HiBit-BRM fusion protein): < 10 nM

**Q.** Which results are given for `Cc1ncsc1-c1ccc([C@H](C)NC(=O)[C@@H]2C[C@@H](O)CN2C(=O)[C@@H](c2cc(-c3cnc(N4CC[C@@H](c5cc6nnc(-c7ccccc7O)cc6n5CC5CC5)C4)nc3)no2)C(C)C)cc1` [Compound 114, (2S,4R)-1-((R)-2-(3-(2-((R)-3-(5-(cyclopropylmethyl)-3-(2-hydroxyphenyl)-5H-pyrrolo[3,2-c]pyridazin-6-yl)pyrrolidin-1-yl)pyrimidin-5-yl)isoxazol-5-yl)-3-methylbutanoyl)-4-hydroxy-N-((S)-1-(4-(4-methylthiazol-5-yl)phenyl)ethyl)pyrrolidine-2-carboxamide]?
**A.** Dmax [1]: > 75%; DC50 [1]: > 10 nM; BRM HiBit Degradation Maximum (%) (HiBit-BRM fusion protein): A (“A” indicates maximum degradation ≥75%); DC50 (HiBit-BRM fusion protein): < 10 nM

**Q.** `Cc1ncsc1-c1ccc([C@H](C)NC(=O)[C@@H]2C[C@@H](O)CN2C(=O)[C@@H](c2cc(-c3cnc(N4CC[C@H](c5cc6nnc(-c7ccccc7O)cc6n5CC5CC5)C4)nc3)no2)C(C)C)cc1` [Compound 115, (2S,4R)-1-((R)-2-(3-(2-((S)-3-(5-(cyclopropylmethyl)-3-(2-hydroxyphenyl)-5H-pyrrolo[3,2-c]pyridazin-6-yl)pyrrolidin-1-yl)pyrimidin-5-yl)isoxazol-5-yl)-3-methylbutanoyl)-4-hydroxy-N-((S)-1-(4-(4-methylthiazol-5-yl)phenyl)ethyl)pyrrolidine-2-carboxamide] was tested. Which Dmax [1] did it give?
**A.** Its Dmax is > 50%.

**Q.** And the DC50 [1]?
**A.** The DC50 was > 10 nM.

**Q.** What about the “BRM HiBit Degradation Maximum (%)” value (HiBit-BRM fusion protein) of the same molecule?
**A.** The value was “A (“A” indicates maximum degradation ≥75%)”.

**Q.** And the DC50 (HiBit-BRM fusion protein)?
**A.** Its DC50 is < 10 nM.

**Q.** How did the Dmax [1] turn out when `Cc1ncsc1-c1ccc([C@H](C)NC(=O)[C@@H]2C[C@@H](O)CN2C(=O)[C@@H](c2cc(-c3ccnc(N4CC[C@@H](c5cc6nnc(-c7ccccc7O)cc6n5C5CC5)C4)n3)no2)C(C)C)cc1` [Compound 116, (2S,4R)-1-[(2R)-2-(3-{2-[(3R)-3-[5-cyclopropyl-3-(2-hydroxyphenyl)pyrrolo[3,2-c]pyridazin-6-yl]pyrrolidin-1-yl]pyrimidin-4-yl}-1,2-oxazol-5-yl)-3-methylbutanoyl]-4-hydroxy-N-[(1S)-1-[4-(4-methyl-1,3-thiazol-5-yl)phenyl]ethyl]pyrrolidine-2-carboxamide] was run?
**A.** Its Dmax is < 50%.

**Q.** And the “BRM HiBit Degradation Maximum (%)” value (HiBit-BRM fusion protein)?
**A.** The value was “A (“A” indicates maximum degradation ≥75%)”.

**Q.** And the DC50 (HiBit-BRM fusion protein)?
**A.** Its DC50 is > 10 nM.

**Q.** What does the source list for `Cc1ncsc1-c1ccc([C@H](C)NC(=O)[C@@H]2C[C@@H](O)CN2C(=O)[C@@H](c2cc(N3CCC4(CC3)CC(c3cc5nnc(-c6ccccc6O)cc5n3C3CC3)C4)no2)C(C)C)cc1` [Compound 117, (2S,4R)-1-((R)-2-(3-(2-(5-cyclopropyl-3-(2-hydroxyphenyl)-5H-pyrrolo[3,2-c]pyridazin-6-yl)-7-azaspiro[3.5]nonan-7-yl)isoxazol-5-yl)-3-methylbutanoyl)-4-hydroxy-N-((S)-1-(4-(4-methylthiazol-5-yl)phenyl)ethyl)pyrrolidine-2-carboxamide]?
**A.** Dmax [1]: < 50%; BRM HiBit Degradation Maximum (%) (HiBit-BRM fusion protein): A (“A” indicates maximum degradation ≥75%); DC50 (HiBit-BRM fusion protein): < 10 nM

**Q.** How did the Dmax [1] turn out when `CC(C)C(C(=O)N1C[C@H](O)C[C@H]1C(=O)NC1CCC1)c1cc(N2CC3(CC(c4cc5nnc(-c6ccccc6O)cc5n4C4CCC4)C3)C2)no1` (stereo partly drawn) [Compound 118, (2S,4R)-N-cyclobutyl-1-(2-(3-(6-(5-cyclobutyl-3-(2-hydroxyphenyl)-5H-pyrrolo[3,2-c]pyridazin-6-yl)-2-azaspiro[3.3]heptan-2-yl)isoxazol-5-yl)-3-methylbutanoyl)-4-hydroxypyrrolidine-2-carboxamide] was run?
**A.** The Dmax was < 50%.

**Q.** What about the “BRM HiBit Degradation Maximum (%)” value (HiBit-BRM fusion protein) of the same molecule?
**A.** The value was “A (“A” indicates maximum degradation ≥75%)”.

**Q.** What about the DC50 (HiBit-BRM fusion protein) of the same molecule?
**A.** The DC50 was > 10 nM.

**Q.** For `CC(C)C(C(=O)N1C[C@H](O)C[C@H]1C(=O)NC1CCCC1)c1cc(N2CC3(CC(c4cc5nnc(-c6ccccc6O)cc5n4C4CCC4)C3)C2)no1` (stereo partly drawn) [Compound 119, (2S,4R)-1-(2-(3-(6-(5-cyclobutyl-3-(2-hydroxyphenyl)-5H-pyrrolo[3,2-c]pyridazin-6-yl)-2-azaspiro[3.3]heptan-2-yl)isoxazol-5-yl)-3-methylbutanoyl)-N-cyclopentyl-4-hydroxypyrrolidine-2-carboxamide], which Dmax [1] is on record?
**A.** Its Dmax is < 50%.

**Q.** What about the “BRM HiBit Degradation Maximum (%)” value (HiBit-BRM fusion protein) of the same molecule?
**A.** The value was “A (“A” indicates maximum degradation ≥75%)”.

**Q.** And the DC50 (HiBit-BRM fusion protein)?
**A.** The DC50 was > 10 nM.

**Q.** For `CC(C)C(C(=O)N1C[C@H](O)C[C@H]1C(=O)NC12CC(C1)C2)c1cc(N2CC3(CC(c4cc5nnc(-c6ccccc6O)cc5n4C4CCC4)C3)C2)no1` (stereo partly drawn) [Compound 120, (2S,4R)-N-(bicyclo[1.1.1]pentan-1-yl)-1-(2-(3-(6-(5-cyclobutyl-3-(2-hydroxyphenyl)-5H-pyrrolo[3,2-c]pyridazin-6-yl)-2-azaspiro[3.3]heptan-2-yl)isoxazol-5-yl)-3-methylbutanoyl)-4-hydroxypyrrolidine-2-carboxamide], which Dmax [1] is on record?
**A.** Its Dmax is < 50%.

**Q.** And the “BRM HiBit Degradation Maximum (%)” value (HiBit-BRM fusion protein)?
**A.** Its value is “A (“A” indicates maximum degradation ≥75%)”.

**Q.** And the DC50 (HiBit-BRM fusion protein)?
**A.** Its DC50 is > 10 nM.

**Q.** What does the source list for `C#Cc1ccc([C@H](C)NC(=O)[C@@H]2C[C@@H](O)CN2C(=O)C(c2cc(N3CC4(CC(c5cc6nnc(-c7ccccc7O)cc6n5C5CCC5)C4)C3)no2)C(C)C)c(Cl)c1` (stereo partly drawn) [Compound 121, (2S,4R)-N-((S)-1-(2-chloro-4-ethynylphenyl)ethyl)-1-(2-(3-(6-(5-cyclobutyl-3-(2-hydroxyphenyl)-5H-pyrrolo[3,2-c]pyridazin-6-yl)-2-azaspiro[3.3]heptan-2-yl)isoxazol-5-yl)-3-methylbutanoyl)-4-hydroxypyrrolidine-2-carboxamide]?
**A.** Dmax [1]: < 50%; BRM HiBit Degradation Maximum (%) (HiBit-BRM fusion protein): A (“A” indicates maximum degradation ≥75%); DC50 (HiBit-BRM fusion protein): > 10 nM
